{"source": "patent US6465455B1", "about": "“Benzamide derivatives for the treatment of diseases mediated by cytokines” (AstraZeneca AB, priority 1998, dated 2002)", "data": [{"smiles": "COc1ccc(C(=O)Nc2cc(NC(=O)c3cccc(N4CCOCC4)c3)ccc2Cl)cc1OC", "note": "[Example 4, N-[2-chloro-5-(3-morpholinobenzamido)phenyl]-3,4-dimethoxybenzamide]", "values": [{"measurement": "melting point", "value": "147.9 to 148.3", "unit": "°C"}]}, {"smiles": "CC(=O)Oc1ccc(C(=O)Nc2ccc(Cl)c(NC(=O)c3ccc(C#N)cc3)c2)cc1", "note": "[Example 14, N-[5-(4-acetoxybenzamido)-2-chlorophenyl]-4-cyanobenzamide]", "values": [{"measurement": "melting point", "value": "195 to 196", "unit": "°C"}]}]}
